Source: paper PMC7019360, “Antihypertensive Effects of Virgin Olive Oil (Unfiltered) Low Molecular Weight Peptides with ACE Inhibitory Activity in Spontaneously Hypertensive Rats” (Nutrients, 2020)
Like-named read-outs stand apart in the source and are kept apart here. Ends that are not written are not given here. Peptide text beside a SMILES is read from it.

Key:
[1] = biological target: angiotensin-converting enzyme (ACE) (Homo sapiens, UniProt P12821); assay: ACE inhibitory activity in vitro (IC50); type: biochemical; settings: chemically synthesised peptides, method of ref 35 with modifications of ref 28, mean ± SD, read-out: ACEi Activity IC50 (µm) ± SD
Chain of angiotensin-converting enzyme (ACE) (P12821 30-1306, species assumed): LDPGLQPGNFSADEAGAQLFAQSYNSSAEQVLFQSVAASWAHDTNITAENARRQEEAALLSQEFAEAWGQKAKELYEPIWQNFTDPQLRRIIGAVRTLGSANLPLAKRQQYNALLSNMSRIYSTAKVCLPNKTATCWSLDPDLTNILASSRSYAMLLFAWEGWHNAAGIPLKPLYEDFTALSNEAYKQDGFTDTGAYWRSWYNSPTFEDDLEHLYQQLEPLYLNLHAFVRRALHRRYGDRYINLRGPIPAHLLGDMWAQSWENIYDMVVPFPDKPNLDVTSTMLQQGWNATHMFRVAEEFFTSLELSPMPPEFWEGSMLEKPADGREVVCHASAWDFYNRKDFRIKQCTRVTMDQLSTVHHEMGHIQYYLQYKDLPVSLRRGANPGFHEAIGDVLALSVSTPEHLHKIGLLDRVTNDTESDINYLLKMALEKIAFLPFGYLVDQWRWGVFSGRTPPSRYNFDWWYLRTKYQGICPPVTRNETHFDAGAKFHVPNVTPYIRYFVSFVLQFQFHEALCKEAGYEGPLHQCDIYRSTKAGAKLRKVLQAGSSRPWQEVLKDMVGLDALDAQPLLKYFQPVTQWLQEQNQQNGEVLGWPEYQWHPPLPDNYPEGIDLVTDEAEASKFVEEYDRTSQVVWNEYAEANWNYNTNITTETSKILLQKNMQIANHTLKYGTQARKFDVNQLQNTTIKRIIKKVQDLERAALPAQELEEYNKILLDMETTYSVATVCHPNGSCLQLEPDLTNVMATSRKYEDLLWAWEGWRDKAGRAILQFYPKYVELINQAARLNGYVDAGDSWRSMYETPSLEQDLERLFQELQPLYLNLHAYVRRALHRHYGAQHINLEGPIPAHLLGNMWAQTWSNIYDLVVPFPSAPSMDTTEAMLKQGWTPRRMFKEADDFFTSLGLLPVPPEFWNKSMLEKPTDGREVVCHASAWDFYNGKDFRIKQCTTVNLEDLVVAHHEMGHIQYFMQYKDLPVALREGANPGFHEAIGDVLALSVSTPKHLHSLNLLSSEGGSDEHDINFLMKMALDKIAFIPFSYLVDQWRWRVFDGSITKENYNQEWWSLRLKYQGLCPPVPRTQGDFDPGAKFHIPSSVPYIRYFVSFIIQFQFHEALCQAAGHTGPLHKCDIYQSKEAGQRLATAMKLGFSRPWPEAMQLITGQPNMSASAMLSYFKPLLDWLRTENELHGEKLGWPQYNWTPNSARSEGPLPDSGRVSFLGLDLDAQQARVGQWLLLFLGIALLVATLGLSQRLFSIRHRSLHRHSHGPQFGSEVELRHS
From the text: The ACE inhibitory activity of the samples was studied using the methodology specified in [35], with some modifications. The ACE inhibitory activity is shown as IC50, or the concentration needed to inhibit the activity of the enzyme by 50%.

[2] = Water solubility of synthetic peptide; type: physicochemical; settings: reason why the ACE activity was not determined
SHR = settings: bovine casein-derived peptide; cited from earlier work
From the text: The study of ACE inhibitor peptides in foods is a very active area of research and there are a few available data bases with information on peptide sequences and biological activity. We used the BIOPEP data base to assist with our selection of peptides because it uses previous published research providing information about the number of ACE inhibitor motifs of a peptide sequence and calculates the peptide's theoretical activity. Apart from the ACE inhibitory activity, the data base detected additional potential activities of our selected peptides, including antioxidant (Nos. 9 and 11), anti-th ... || The process of development of high blood pressure in humans presents analogies with the development of hypertension in SHR. For this reason, the SHR model has been extensively used in the evaluation of food peptides with antihypertensive potential. […] It contains four dipeptides (DG, GG, GY, DG) with previously reported activity, h ...

ACE = settings: bovine casein-derived peptide; cited from earlier work
From the text: The process of development of high blood pressure in humans presents analogies with the development of hypertension in SHR. For this reason, the SHR model has been extensively used in the evaluation of food peptides with antihypertensive potential. […] It contains four dipeptides (DG, GG, GY, DG) with previously reported activity, h ...

[3] = tested on: spontaneously hypertensive rats (SHR); assay: Antihypertensive activity in SHR, tail-cuff SBP after acute oral administration; type: in vivo, rat; settings: oral Captopril 50 mg/kg BW, at 24 h
From the text: The antihypertensive effect of synthetic peptides No. 1 (RDGGYCC), No. 2 (LEEFCC), No. 3 (HCGCNTH) and No. 4 (CCGNAVPQ) was studied on the systolic blood pressure (SBP) and diastolic blood pressure (DBP) using the spontaneously hypertensive rat (SHR) animal model of hypertension. The tail-cuff method was used to measure SBP and DBP [36] as described in [28]. We selected a dose of synthetic peptides in the range described in previous studies of antihypertensive effects of peptides with ACE inhibitory activity. SBP and DBP data was always collected by the same technician. A period of training of two weeks was set to allow the animals to be habituated to this methodology. Forty-eight male SHR (age 19–21 weeks) were used. The average BW of the animals was 322.0 ± 6.0 g. The synthetic peptides were dissolved in water and were administered orally to the animals (about 1 mL per animal). The ACE inhibitor drug Captopril (Sigma, St. Louis, MO, USA) was used as a positive control and water was used as a negative control. The SHR were distributed randomly into 6 study groups (n = 8 per group) and received an oral dose of one of the four synthetic peptides (25 mg/kg of BW), or a dose of Captopril (50 mg/kg of BW) or water (1 mL). SBP and DBP were measured in the rats at baseline (time 0) and at 2, 4, 8 and 24 h post-administration of the peptides or controls. […]

Compound | IC50 ([1]; SD) [µM] | also measured
LALAPTN [SEQ No.14] | 135 ± 13.5 | –
YEAYPS [SEQ No.21] | – | IC50 [1]: > 460 µM
LQFCCY [SEQ No.17, synthetic peptide LQFCCY from olive oil extract] | – | Water solubility [2]: not water soluble
KVLPVPQ | – | SBP reducing effect in SHR (SHR): high SBP reducing effect; In vitro ACE inhibitory activity (ACE): low in vitro ACE inhibitory activity
CC(C)C[C@H](NC(=O)[C@@H]1CCCN1C(=O)[C@H](CC(=O)O)NC(=O)[C@H](CS)NC(=O)CNC(=O)[C@H](CS)NC(=O)CNC(=O)[C@@H](N)Cc1ccc(O)cc1)C(=O)O [SEQ No.6] (H-YGCGCDPL-OH) | 1.64 ± 0.02 | –
CC(C)C[C@H](NC(=O)[C@H](CC(=O)O)NC(=O)[C@H](CS)NC(=O)CNC(=O)[C@H](CS)NC(=O)CNC(=O)[C@@H](N)Cc1ccc(O)cc1)C(=O)N1CCC[C@H]1C(=O)O [SEQ No.5] (H-YGCGCDLP-OH) | 3.51 ± 0.21 | –
EAPGGYDD [SEQ No.19] | – | IC50 [1]: > 405 µM
KRRPPTT [SEQ No.18] | – | IC50 [1]: > 390 µM
EECHAH [SEQ No.9] | 11.8 ± 1.99 | –
C[C@H](CS)C(=O)N1CCC[C@H]1C(=O)O [Captopril] | – | Time course of the antihypertensive effect (SBP) [3]: returned to basal levels
YMHCYF [SEQ No.7] | 3.2 ± 0.23 | –
MSMAPY [SEQ No.23] | – | IC50 [1]: > 480 µM

Further lines, with some results ahead:

IC50 ([1]; SD) [µM] | Compound | also measured
39.6 ± 2.09 | CC(C)[C@H](NC(=O)[C@H](C)NC(=O)[C@H](CC(N)=O)NC(=O)CNC(=O)[C@H](CS)NC(=O)[C@@H](N)CS)C(=O)N1CCC[C@H]1C(=O)N[C@@H](CCC(N)=O)C(=O)O [SEQ No.4] (H-CCGNAVPQ-OH) | –
2.58 ± 0.26 | C[C@@H](O)[C@H](NC(=O)[C@H](CC(N)=O)NC(=O)[C@H](CS)NC(=O)CNC(=O)[C@H](CS)NC(=O)[C@@H](N)Cc1c[nH]cn1)C(=O)N[C@@H](Cc1c[nH]cn1)C(=O)O [SEQ No.3] (H-HCGCNTH-OH) | –
230 ± 36.5 | RPVPPVF [SEQ No.15] | –
107 ± 14.7 | LEFTSSY [SEQ No.12] | –
0.84 ± 0.02 | N=C(N)NCCC[C@H](N)C(=O)N[C@@H](CC(=O)O)C(=O)NCC(=O)NCC(=O)N[C@@H](Cc1ccc(O)cc1)C(=O)N[C@@H](CS)C(=O)N[C@@H](CS)C(=O)O [SEQ No.1] (H-RDGGYCC-OH) | –
305 ± 10.9 | LALSAPVP [SEQ No.16] | –
1.85 ± 0.16 | CC(C)C[C@H](N)C(=O)N[C@@H](CCC(=O)O)C(=O)N[C@@H](CCC(=O)O)C(=O)N[C@@H](Cc1ccccc1)C(=O)N[C@@H](CS)C(=O)N[C@@H](CS)C(=O)O [SEQ No.2] (H-LEEFCC-OH) | –
6.88 ± 0.3 | C[C@H](NC(=O)[C@H](C)NC(=O)[C@@H](N)Cc1c[nH]c2ccccc12)C(=O)NCC(=O)N[C@@H](Cc1ccc(O)cc1)C(=O)N[C@@H](CS)C(=O)N[C@@H](CS)C(=O)O [SEQ No.8] (H-WAAGYCC-OH) | –
